US20040241708A1, “Recombinant vector for transforming strain to detect benzoic acid and derivatives thereof, transformant containing the recombinant vector, and method for detecting benzoic acid and derivatives thereof using the transformant” (priority 2003, published 2004)

System: transformant EBNAG1 (E. coli RFM443/pNAG1, nagR-PnagG::luxCDABE)
Experiment: Detectability of transformant EBNAG1 on benzoic acid and derivatives (bioluminescence response)
Format: cell-based, Escherichia coli
Settings: for minimal effective concentration: Escherichia coli, read-out: MDC (Minimum detection concentration); for bioluminescence intensity: EBNAG1, 0.1953125-12.5 mM, 3 hours after seeding, FIGS. 3a and 3b
Experimental: The EBNAG1 strain was cultivated in a 100 ml LB medium supplemented with 50 μg/ml ampicillin at 30° C. until the absorbance reached 0.08 (at 600 nm). 100 μl of aliquot was taken from the culture for the measurement of the bioluminescence intensity, and was then poured on each well of an opaque96-well plate [Microlite™, Thermo Labsystems, USA] containing chemicals to be tested (benzoic acid concentrations: 12.5, 6.25, 3.125, 1.5625, 0.78125, 0.390625 and 0.1953125 mM, and salicylic acid concentrations: 12.5, 6.25, 3.125, 1.5625, 0.78125, 0.390625 and 0.1953125 mM). The well plates were placed in a 96-well microtiter plate reader (MLX Microtiter® Plate Luminometer, DYNEX Technology, USA) to measure the bioluminescence intensity.
FIGS. 3a and 3b show the results of bioluminescent signals obtained from EBNAG1 after seeding benzoic acid and salicylic acid as a representative benzoic acid derivative at various concentrations, respectively.

O=C(O)c1cc(O)cc(O)c1 [3,5-Dihydroxybenzoic acid] was tested, and the minimal effective concentration was 3130 µM.
O=C(O)c1ccc(O)c(O)c1 [3,4-Dihydroxybenzoic acid] gave a minimal effective concentration of 6250 µM.
In the case of O=C(O)c1ccc(Cl)cc1O [4-Chlorosalicylic acid], the minimal effective concentration is reported as < 390 µM.
COc1ccc(CO)cc1OC [3,4-Dimethoxybenzylalcohol] was tested, and the minimal effective concentration was 390 µM.
O=C(O)c1ccc(O)cc1O [2,4-Dihydroxybenzoic acid] gave a minimal effective concentration of 3130 µM.
Work on O=C(O)c1cc(Cl)ccc1O [5-Chlorosalicylic acid] yielded a minimal effective concentration of 390 µM.
In the case of O=C(O)c1ccccc1O [Salicylic acid], the bioluminescence intensity is reported as “increased in proportion to the salicylic acid concentrations” and the minimal effective concentration is reported as 195 µM.
In the case of O=C(O)c1ccccc1 [Benzoic acid], the bioluminescence intensity is reported as “increased in proportion to the benzoic acid concentrations” and the minimal effective concentration is reported as 390 µM.
